The subject of test [1] is BMSC (primary human bone marrow mesenchymal stromal cells). Nature of the test: absolute EC50 for viability; higher = less sensitive.
Test [2] has the same test system. Nature of the test: drug sensitivity score (DSS); higher = more sensitive.

Consider 38 compounds from the supplement of paper PMC9103864.

Bounds are passed on as bounds.

For the compound `C[C@]12CC[C@H](O)CC1=CC[C@@H]1[C@@H]2CC[C@]2(C)C(c3cccnc3)=CC[C@@H]12` [Abiraterone], the “absolute EC50 for viability” value in test [1] is more than 5 µM. In test [2], this compound came in with a drug sensitivity score of 0.
In the case of `Cc1cnc(-c2ccccc2C(C)C)nc1NCc1ccc(-n2ccnn2)cc1` [ML323], the “absolute EC50 for viability” value in test [1] was more than 10 µM. In test [2], this compound showed a drug sensitivity score of 0.
For `Cc1ccc(NC(=O)c2ccc(CN3CCN(C)CC3)cc2)cc1Nc1nc(-c2cccnc2)cs1` [Masitinib], in that order: 2.86 µM and 8.8.
On to `CN1CCN(C(=O)c2ccc3cc(CCNc4ncnc5ccc(C#N)cc45)ccc3c2)CC1` [Senexin B], for which, in test [1], the “absolute EC50 for viability” value was more than 1 µM. The compound further had a drug sensitivity score in test [2] of 0.3.
As for `O=C(c1cccc(Cl)c1F)N1CCN(Cc2cccc(Nc3nccs3)n2)CC1` [MK-8745], the “absolute EC50 for viability” value in test [1] was more than 10 µM. Also, the drug sensitivity score in test [2] stood at 1.3.
In the case of `Cc1ncc(Cl)cc1NCc1ccc(C(=O)N[C@@H](CC2CCCC2)C(=O)NC2CC2)s1`, the “absolute EC50 for viability” value in test [1] is more than 5 µM. Further, in test [2], the drug sensitivity score came out at 0.
Take `Clc1ccccc1C(c1ccccc1)(c1ccccc1)n1cccn1` [TRAM-34]: the “absolute EC50 for viability” value in test [1] is more than 1 µM. This compound returned a drug sensitivity score in test [2] of 0.
The corresponding values for `C[C@@H]1CCN(C(=O)CC#N)C[C@@H]1N(C)c1ncnc2[nH]ccc12` [Tofacitinib] are more than 5 µM and 0.
Take `CN1CCC(COc2cnc(-c3cccc(Cn4nc(-c5cccc(C#N)c5)ccc4=O)c3)nc2)CC1` [Tepotinib]: the “absolute EC50 for viability” value in test [1] is more than 1 µM. For the same compound, the drug sensitivity score in test [2] is 0.3.
In the case of `C=CC[C@@H]1/C=C(\C)C[C@H](C)C[C@H](OC)[C@H]2O[C@@](O)(C(=O)C(=O)N3CCCC[C@H]3C(=O)O[C@H](/C(C)=C/[C@@H]3CC[C@@H](O)[C@H](OC)C3)[C@H](C)[C@@H](O)CC1=O)[C@H](C)C[C@@H]2OC` [Tacrolimus], the “absolute EC50 for viability” value in test [1] was more than 10 µM. Moreover, the drug sensitivity score in test [2] came out at 1.8.
The corresponding values for `NS(=O)(=O)NCCNc1nonc1/C(=N/O)Nc1ccc(F)c(Br)c1` [Epacadostat] are more than 10 µM and 0.
For `O=C(O)c1ccc(CN2CCC(CN[C@@H]3C[C@H]3c3ccccc3)CC2)cc1`, in test [1], the “absolute EC50 for viability” value was more than 100 µM. In test [2], this compound displayed a drug sensitivity score of 0.
As for `Cc1ccc(NC(=O)c2ccc(CN3CC[C@H](N(C)C)C3)c(C(F)(F)F)c2)cc1Nc1nccc(-c2cncnc2)n1` [Bafetinib], the “absolute EC50 for viability” value in test [1] is more than 1 µM. The drug sensitivity score in test [2] stood at 1.9.
The corresponding values for `CNC(=O)c1nn(C)c2c1C(C)(C)Cc1cnc(Nc3ccc(N4CCN(C)CC4)cc3)nc1-2` [Milciclib] are more than 10 µM and 10.1.
For the compound `O=C(Nc1c[nH]nc1-c1nc2ccc(CN3CCOCC3)cc2[nH]1)NC1CC1` [AT9283], the “absolute EC50 for viability” value in test [1] stood at 0.254 µM. This compound also had a drug sensitivity score in test [2] of 6.
The corresponding values for `CCOCc1nc2c(N)nc3ccccc3c2n1CC(C)(C)O` [Resiquimod] are more than 10 µM and 0.
For `CCc1cc2c(cc1N1CCC(N3CCOCC3)CC1)C(C)(C)c1[nH]c3cc(C#N)ccc3c1C2=O` [Alectinib], the “absolute EC50 for viability” value in test [1] was more than 1 µM. In addition, the drug sensitivity score in test [2] stood at 0.
For `CNC(=O)c1ccc(C)c(-n2c(C)cc(OCc3ccc(F)cc3F)c(Br)c2=O)c1`, in that order: more than 1 µM and 0.
For `Nc1nc(Cl)nc2c1ncn2[C@@H]1O[C@H](CO)[C@@H](O)[C@@H]1F` [Clofarabine], in that order: 0.739 µM and 11.4.
For `CN(C)CCOc1ccc(/C(=C(/CCCl)c2ccccc2)c2ccccc2)cc1` [Toremifene], in that order: more than 10 µM and 0.
Consider `CC(C)Cn1cnc2c(N)nc3ccccc3c21` [Imiquimod], for which the “absolute EC50 for viability” value in test [1] is more than 2.5 µM. This compound also registered a drug sensitivity score in test [2] of 0.
The corresponding values for `Cc1cn(-c2cc(NC(=O)c3ccc(C)c(Nc4nccc(-c5cnccn5)n4)c3)cc(C(F)(F)F)c2)cn1` [Radotinib] are more than 10 µM and 0.
For `COC[C@H](NC(=O)c1cnc(C)s1)C(=O)N[C@@H](COC)C(=O)N[C@@H](Cc1ccccc1)C(=O)[C@@]1(C)CO1` [Oprozomib], in that order: 0.304 µM and 10.
As to `N#CC[C@H](C1CCCC1)n1cc(-c2ncnc3[nH]ccc23)cn1` [Ruxolitinib], in test [1], the “absolute EC50 for viability” value is more than 10 µM. For the same compound, in test [2], the drug sensitivity score was found to be 0.2.
With `CC1=C(/C=C/C(C)=C/C=C/C(C)=C/C(=O)O)C(C)(C)CCC1` [Tretinoin], the “absolute EC50 for viability” value in test [1] is more than 10 µM. This compound registered a drug sensitivity score in test [2] of 0.
In the case of `O=C(O)c1ccc2c(c1)nc(Nc1cccc(Cl)c1)c1ccncc12` [Silmitasertib], in test [1], the “absolute EC50 for viability” value is more than 10 µM. In test [2], this compound registered a drug sensitivity score of 2.3.
The corresponding values for `CC(C)n1nc(-c2ccc3oc(N)nc3c2)c2c(N)ncnc21` [Sapanisertib] are 0.0759 µM and 11.4.
Turning to `Cc1cc(Nc2ncc(Cl)c(Nc3ccccc3S(=O)(=O)C(C)C)n2)c(OC(C)C)cc1C1CCNCC1` [Ceritinib], the “absolute EC50 for viability” value in test [1] is more than 2.5 µM. This compound displayed a drug sensitivity score in test [2] of 1.3.
As for `CCCOc1ccn2c(C(C)=O)cc(-c3ccccc3S(C)(=O)=O)c2c1` [GSK2801], the “absolute EC50 for viability” value in test [1] was more than 10 µM. The compound also had a drug sensitivity score in test [2] of 0.
The corresponding values for `N.N.[Cl][Pt][Cl]` [Cisplatin] are 48.5 µM and 3.6.
The corresponding values for `CC1=C2C[C@H]3[C@@H](CC[C@@H]4C[C@H](NS(C)(=O)=O)CC[C@@]43C)[C@@H]2CC[C@@]2(C1)O[C@@H]1C[C@H](C)CN[C@H]1[C@H]2C` [Saridegib] are more than 10 µM and 0.
The corresponding values for `CN(C)C/C=C/C(=O)Nc1cc2c(Nc3ccc(F)c(Cl)c3)ncnc2cc1O[C@H]1CCOC1` [Afatinib] are more than 1 µM and 2.9.
Consider `CC(C)n1cnc2c(NCCc3ccc(O)cc3)nc(-c3csc4ccccc34)nc21` [StemRegenin 1], for which, in test [1], the “absolute EC50 for viability” value was more than 10 µM. The same compound returned a drug sensitivity score in test [2] of 0.4.
For `COc1ccc(Cn2ccc3ccc(C(=O)NO)cc32)cc1`, in that order: 9.93 µM and 0.
As to `O=C1c2c(O)ccc(O)c2C(=O)c2c(NCCNCCO)ccc(NCCNCCO)c21` [Mitoxantrone], the “absolute EC50 for viability” value in test [1] amounted to 0.185 µM. This compound had a drug sensitivity score in test [2] of 8.
For `CC[C@H](Nc1ncnc2[nH]cnc12)c1nc2cccc(F)c2c(=O)n1-c1ccccc1` [Idelalisib], in that order: more than 10 µM and 2.7.
The corresponding values for `CCCN(CCC)C(=O)C1=Cc2ccc(-c3ccc(C(=O)N4CCCC4)cc3)cc2N=C(N)C1` [Motolimod] are 9.93 µM and 0.
`COC(=O)N[C@@H](C)CNc1nccc(-c2cn(C(C)C)nc2-c2cc(Cl)cc(NS(C)(=O)=O)c2F)n1` [Encorafenib]: the “absolute EC50 for viability” value in test [1] was more than 1 µM. The compound further registered a drug sensitivity score in test [2] of 0.
